Experimental data published in PubChem BioAssay AID330 (DTP/NCI, 2004).
Several values for one entry are separate records, joined by “and”; a condition that tells them apart may be missing. Equal entries are not always repeated. Toxic doses and inconclusive results are not listed.

Tested on: P388 leukemia ip, CD2F1 mice, survival T/C
Assay: NCI In Vivo Anticancer Drug Screen. Data for tumor model P388 Leukemia (intraperitoneal) in CD2F1 (CDF1) mice
Conditions: endpoint: median survival time, higher = longer survival
How it was run: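 Mice carrying the transplanted tumor received test compound or vehicle. Survival was recorded in each group, and the value is the treated-group measurement divided by that of the vehicle-treated control group.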

[1] = dose: 25.0 mg/kg/injection, schedule: Q01DX009 (ip), vehicle: saline with Tween-80
[2] = dose: 50.0 mg/kg/injection, schedule: Q01DX009 (ip), vehicle: saline with Tween-80
[3] = dose: 100.0 mg/kg/injection, schedule: Q01DX009 (ip), vehicle: saline with Tween-80
[4] = dose: 25.0 mg/kg/injection, schedule: Q01DX005 (ip), vehicle: saline with Tween-80
[5] = dose: 50.0 mg/kg/injection, schedule: Q01DX005 (ip), vehicle: saline with Tween-80
[6] = dose: 100.0 mg/kg/injection, schedule: Q01DX005 (ip), vehicle: saline with Tween-80
[7] = dose: 240.0 mg/kg/injection, schedule: Q01DX005 (ip), vehicle: Klucel (hydroxypropylcellulose) (HPC)
[8] = dose: 60.0 mg/kg/injection, schedule: Q01DX005 (ip), vehicle: Klucel (hydroxypropylcellulose) (HPC)
[9] = dose: 120.0 mg/kg/injection, schedule: Q01DX005 (ip), vehicle: Klucel (hydroxypropylcellulose) (HPC)
[10] = dose: 200.0 mg/kg/injection, schedule: Q01DX005 (ip), vehicle: saline with Tween-80
[11] = dose: 60.0 mg/kg/injection, schedule: Q01DX005 (ip), vehicle: saline with Tween-80
[12] = dose: 120.0 mg/kg/injection, schedule: Q01DX005 (ip), vehicle: saline with Tween-80

In the case of `Cc1ccc(C)c(CCNC=O)c1`, the T/C [1] is reported as 100 % of control, the T/C [2] is reported as 110 % of control and the T/C [3] is reported as 98 % of control. The T/C (dose: 200.0 mg/kg/injection, schedule: Q01DX009 (ip), vehicle: saline with Tween-80) was 103 % of control.

In the case of `C=C(C)C(=O)OCCOc1ccc(/C=N/N=c2/sc3ccccc3n2C)cc1OC`, the T/C (dose: 50.0 mg/kg/injection, schedule: Q01DX009 (ip), vehicle: Klucel (hydroxypropylcellulose) (HPC)) is reported as 105 % of control, the T/C (dose: 100.0 mg/kg/injection, schedule: Q01DX009 (ip), vehicle: Klucel (hydroxypropylcellulose) (HPC)) is reported as 97 % of control and the T/C (dose: 200.0 mg/kg/injection, schedule: Q01DX009 (ip), vehicle: Klucel (hydroxypropylcellulose) (HPC)) is reported as 108 % of control.

For `Cc1cc(-c2ccccc2)c(C)c(-c2ccccc2)c1-c1ccccc1`, the T/C (dose: 100.0 mg/kg/injection, schedule: Q04DX002 (ip), vehicle: saline with Tween-80) was 99 % of control, the T/C (dose: 200.0 mg/kg/injection, schedule: Q04DX002 (ip), vehicle: saline with Tween-80) was 101 % of control and the T/C (dose: 400.0 mg/kg/injection, schedule: Q04DX002 (ip), vehicle: saline with Tween-80) was 96 % of control.

For `Cc1c2ccn3c(=O)c4ccccc4cc3c2c(C)c2c1[nH]c1ccccc12`, the T/C (dose: 0.78 mg/kg/injection, schedule: Q04DX003 (ip), vehicle: distilled water + Tween-80) was 89 % of control, the T/C (dose: 1.56 mg/kg/injection, schedule: Q04DX003 (ip), vehicle: distilled water + Tween-80) was 87 % of control and the T/C (dose: 200.0 mg/kg/injection, schedule: Q04DX003 (ip), vehicle: distilled water + Tween-80) was 95 % of control.

`CCCCN(CCCC)CCC(=O)c1ccc(Cl)c2ccccc12` was tested, and the T/C [4] was 97 % of control and the T/C [5] was 105 % of control.

With `N=c1nc(N)c2ncc(/C=C/c3ccccc3)n(O)c-2n1` the T/C (dose: 15.0 mg/kg/injection, schedule: Q01DX009 (ip), vehicle: saline) was 97 % of control, the T/C (dose: 30.0 mg/kg/injection, schedule: Q01DX009 (ip), vehicle: saline) was 101 % of control and the T/C (dose: 60.0 mg/kg/injection, schedule: Q01DX009 (ip), vehicle: saline) was 101 % of control.

With `O=C(Cn1ccnc1[N+](=O)[O-])NCCO` the T/C (dose: 12.5 mg/kg/injection, schedule: Q01DX009 (ip), vehicle: water) was 113 % of control, the T/C (dose: 25.0 mg/kg/injection, schedule: Q01DX009 (ip), vehicle: water) was 105 % of control and the T/C (dose: 50.0 mg/kg/injection, schedule: Q01DX009 (ip), vehicle: water) was 101 % of control. For the same compound, the T/C (dose: 100.0 mg/kg/injection, schedule: Q01DX009 (ip), vehicle: water) was 105 % of control and the T/C (dose: 200.0 mg/kg/injection, schedule: Q01DX009 (ip), vehicle: water) was 114 % of control.

`Cc1noc(NS(=O)(=O)c2ccc(N=c3c4ccccc4n(-c4ccccc4)c4ccccc34)cc2)c1C` was tested, and the T/C [5] was 97 % of control and the T/C [6] was 100 % of control.

For `CC(=S)NC(=O)NC(=O)c1ccc(C)cc1`, the T/C (dose: 100.0 mg/kg/injection, schedule: Q01DX001 (ip), vehicle: saline) was 102 % of control and 104 % of control, the T/C (dose: 200.0 mg/kg/injection, schedule: Q01DX001 (ip), vehicle: saline) was 112 % of control and 96 % of control and the T/C (dose: 400.0 mg/kg/injection, schedule: Q01DX001 (ip), vehicle: saline) was 112 % of control and 97 % of control.

For `Clc1ccc2nc3ccccc3c(SCCCCCCSc3c4ccccc4nc4ccc(Cl)cc34)c2c1`, the T/C (dose: 7.5 mg/kg/injection, schedule: Q01DX005 (ip), vehicle: Klucel (hydroxypropylcellulose) (HPC)) was 103 % of control, the T/C (dose: 15.0 mg/kg/injection, schedule: Q01DX005 (ip), vehicle: Klucel (hydroxypropylcellulose) (HPC)) was 97 % of control and the T/C [7] was 89 % of control.

`[Br][Pd][Br].[NH-]C1CCCC2CCC[N-]C12` (centres undefined) was tested, and the T/C (dose: 12.5 mg/kg/injection, schedule: Q04DX002 (ip), vehicle: saline with Tween-80) was 93 % of control, the T/C (dose: 25.0 mg/kg/injection, schedule: Q04DX002 (ip), vehicle: saline with Tween-80) was 93 % of control and the T/C (dose: 50.0 mg/kg/injection, schedule: Q04DX002 (ip), vehicle: saline with Tween-80) was 98 % of control.

`O=C(Cc1nc2ccccc2[nH]1)NNC(=S)Nc1ccc(Cl)cc1` was tested, and the T/C [8] was 88 % of control and the T/C [9] was 86 % of control.

With `C[C@@]12CCCC1=[N+]1CCc3ccccc3[C@@H]1CC2=O` the T/C (dose: 100.0 mg/kg/injection, schedule: Q04DX002 (ip), vehicle: Klucel (hydroxypropylcellulose) (HPC)) was 101 % of control and the T/C (dose: 200.0 mg/kg/injection, schedule: Q04DX002 (ip), vehicle: Klucel (hydroxypropylcellulose) (HPC)) was 102 % of control.

With `COc1c2c(cc3c1-c1c(cc4c(c1OC)OCO4)CC(C)C(C)C3)OCO2` (centres undefined) the T/C (dose: 13.75 mg/kg/injection, schedule: Q01DX005 (ip), vehicle: Klucel (hydroxypropylcellulose) (HPC)) was 95 % of control, the T/C (dose: 27.5 mg/kg/injection, schedule: Q01DX005 (ip), vehicle: Klucel (hydroxypropylcellulose) (HPC)) was 98 % of control and the T/C (dose: 55.0 mg/kg/injection, schedule: Q01DX005 (ip), vehicle: Klucel (hydroxypropylcellulose) (HPC)) was 98 % of control. The T/C (dose: 110.0 mg/kg/injection, schedule: Q01DX005 (ip), vehicle: Klucel (hydroxypropylcellulose) (HPC)) was 90 % of control.

With `CCN(CC)CCOc1ccc(C2c3cc(OC)ccc3CC2Cc2cccc(Cl)c2)cc1` (centres undefined) the T/C (dose: 6.25 mg/kg/injection, schedule: Q01DX005 (ip), vehicle: Klucel (hydroxypropylcellulose) (HPC)) was 98 % of control, the T/C (dose: 12.5 mg/kg/injection, schedule: Q01DX005 (ip), vehicle: Klucel (hydroxypropylcellulose) (HPC)) was 95 % of control and the T/C (dose: 25.0 mg/kg/injection, schedule: Q01DX005 (ip), vehicle: Klucel (hydroxypropylcellulose) (HPC)) was 96 % of control. For the same compound, the T/C (dose: 50.0 mg/kg/injection, schedule: Q01DX005 (ip), vehicle: Klucel (hydroxypropylcellulose) (HPC)) was 93 % of control.

For `O=C(O)C(S)Cc1cnc[nH]1` (centres undefined), the T/C (dose: 100.0 mg/kg/injection, schedule: Q04DX002 (ip), vehicle: saline) was 99 % of control and the T/C (dose: 200.0 mg/kg/injection, schedule: Q04DX002 (ip), vehicle: saline) was 99 % of control.

In the case of `CC(CC(=O)c1ccccc1)=Nc1ccccc1`, the T/C (dose: 100.0 mg/kg/injection, schedule: Q01DX001 (ip), vehicle: saline sonified) is reported as 110 % of control, the T/C (dose: 200.0 mg/kg/injection, schedule: Q01DX001 (ip), vehicle: saline sonified) is reported as 100 % of control and the T/C (dose: 400.0 mg/kg/injection, schedule: Q01DX001 (ip), vehicle: saline sonified) is reported as 100 % of control.

In the case of `O=C1C(Cl)=C(NC2C(O)OC(CO)C(O)C2O)C(=O)C(Cl)=C1NC1C(O)OC(CO)C(O)C1O` (centres undefined), the T/C [5] is reported as 96 % of control, the T/C [6] is reported as 90 % of control and the T/C [10] is reported as 97 % of control.

`O=NN(CCCl)C(=O)Oc1ccc(OC(=O)N(CCCl)N=O)cc1` was tested, and the T/C (dose: 6.25 mg/kg/injection, schedule: Q01DX001 (ip), vehicle: Klucel (hydroxypropylcellulose) (HPC)) was 116 % of control and the T/C (dose: 12.5 mg/kg/injection, schedule: Q01DX001 (ip), vehicle: Klucel (hydroxypropylcellulose) (HPC)) was 119 % of control.

With `Cc1cc(=O)oc2cc3c(cc12)CCCN3` the T/C [8] was 101 % of control, the T/C [9] was 104 % of control and the T/C [7] was 96 % of control.

`C/C(=N\NC(=S)N(C)C1CCCCC1)c1ccc2ccccc2n1` was tested, and the T/C (dose: 6.25 mg/kg/injection, schedule: Q01DX005 (ip), vehicle: saline with Tween-80) was 103 % of control and 114 % of control, the T/C (dose: 12.5 mg/kg/injection, schedule: Q01DX005 (ip), vehicle: saline with Tween-80) was 111 % of control and 115 % of control and the T/C [4] was 150 % of control.

For `CC1=CCCCN1C(=O)CC1C=CCS1(=O)=O` (centres undefined), the T/C [4] was 100 % of control, the T/C [5] was 103 % of control and the T/C [6] was 103 % of control.

In the case of `COC(=O)c1nc(=S)[nH]c(C(=O)OC)c1C(=O)c1cc(Cl)ccc1Cl`, the T/C [11] is reported as 96 % of control, the T/C [12] is reported as 101 % of control and the T/C (dose: 240.0 mg/kg/injection, schedule: Q01DX005 (ip), vehicle: saline with Tween-80) is reported as 100 % of control.

In the case of `COc1ccc(C2N(c3ccccc3)CCN2c2ccccc2)cc1`, the T/C [5] is reported as 99 % of control, the T/C [6] is reported as 93 % of control and the T/C [10] is reported as 93 % of control.

For `CCOC(=O)C(CCl)C(C(=O)OCC)C(=O)OCC` (centres undefined), the T/C [1] was 117 % of control, the T/C [2] was 110 % of control and the T/C [3] was 112 % of control.

`CN1C(=NCCO)NS(=O)(=O)c2ccccc21` was tested, and the T/C [5] was 98 % of control, the T/C [6] was 100 % of control and the T/C [10] was 104 % of control.

`CC1(C)C(C=O)=CCC1CC(N)=O` (centres undefined) was tested, and the T/C [11] was 117 % of control and the T/C [12] was 111 % of control.
